# In patent publication US20190308988A1, “OPIOID RECEPTOR ANTAGONIST PRODRUGS” (Nirsum Laboratories, Inc., priority 2017, published 2019):
# Assays:
# DOR = biological target: T1, DOR (Homo sapiens, UniProt P41143); experiment: Opioid receptor binding assay, DOR ([3H]-DADLE)
# T1 construct: expressed in transfected cells
# Method: (§1) Receptor binding assays were performed to assess the ability of compounds to inhibit binding to radiolabeled ligand.
# (§2) The stable cell lines were established and prepared cell membrane obtained using these cell lines.
# (§3) 1) Transfer 1 μl of specified concentration compound to assay plate according to the plate map for nonspecific binding. Transfer 1 μl of DMSO to assay plate according to plate map for total binding. 2) Follow the plate map. Dispense 99 μl of membrane stocks into the plate. 3) Add 100 μl of radio ligand. 4) Seal the plates. Incubate at RT for 1 hour. 5) Soak the Unifilter-96 GF/C filter plates with 50 μl of 0.3% PEI per well for at least 0.5 hour at room temperature. 6) When binding assays are completed, filter the reaction mixture through GF/C plates using Perkin Elmer Filtermate Harvester, and then wash each plate for 4 times with cold wash buffer. 7) Dry the filter plates for 1 hour at 50 degrees. 8) After drying, seal the bottom of the filter plate wells using Perkin Elmer Unifilter-96 backing seal tape. Add 50 μl of Perkin Elmer Microscint 20 cocktail. Seal top of filter plates with Perkin Elmer TopSeal-A sealing film. 9) Count ^3H trapped on filter using Perkin Elmer MicroBeta2 Reader second day. 10) Analyze the data with GraphPad Prism 5. Calculate the “Inhibition [% Control]” using the equation: % Inh=(1−Background subtracted Assay value/Background subtracted HC value)*100.
# KOR = biological target: T2, KOR (Homo sapiens, UniProt P41145); experiment: Opioid receptor binding assay, KOR ([3H]Diprenorphine)
# T2 construct: expressed in transfected cells
# Method: as §1, §2, §3
# MOR = biological target: T3, MOR (Homo sapiens, UniProt P35372); experiment: Opioid receptor binding assay, MOR ([3H]DAMGO)
# T3 construct: expressed in transfected cells
# Method: as §1, §2, §3
# [1] = Solubility determination in oil (Table 10); settings: thermodynamic from solid; for solubility at 24 h: 25 °C, Obs. Temp. 25 °C; for solubility thermodynamic / solubility: 40 °C, Obs. Temp. 40 °C; for solubility thermodynamic: water, Equilibrium solubility: Water
# Method: A known amount of test substance (˜40 mg) was weighed into the vial, 100 μL of oil was added and heated to 60° C. and then system was slurried to reach equilibrium. […] Extra oil was added into the vial once compound precipitated out and then the system was re-equilibrated at 1000 rpm at room temperature (25° C.). Final concentration was determined by HPLC method as described below in Table 6a and 6b.
# [2] = Rat pharmacokinetic studies, intramuscular administration; type: in vivo, male Sprague Dawley Rats; settings: male, Sprague Dawley, rat, plasma, im; 165 mg/kg, Sesame oil + 1% Benzyl Alcohol; read-out: AUC0-inf (ng · h/mL) prodrug
# Method: The purpose of this study is to determine the pharmacokinetics of test compounds in plasma, following intramuscular administration to male Sprague Dawley Rats (n=3, unless otherwise specified).
# The dose formulation of 400 mg base equivalents/ml in sesame oil+1% benzyl alcohol (unless otherwise specified) was administered by intramuscular injection. The dose volume was determined by the animals' body weight determined on the morning of dosing day.
# Each collected blood sample was centrifuged for 4 minutes at 4° C. and 10000 rpm for plasma collection. Plasma was collected and transferred into a pre-labeled PP tube in dry ice at each time point and precipitated immediately using ACN at a ratio of 1:4 (plasma:ACN). Centrifuged again (10 minutes, 12000 rpm) and obtain the supernatant.
# LC-MS/MS methods for the quantitative determination of test compound in biological matrix were developed. […] The sample analysis was performed concurrently with a set of calibration standards and two sets of QC samples using the LC-MS/MS method.
# Plasma concentration versus time data was analyzed by non-compartmental approaches using the Phoenix WinNonlin 6.3 software program. Cmax, Tmax, T1/2, AUC(0-t), AUC(0-inf), MRT(0-t), MRT(0-inf) and graphs of plasma concentration versus time profile were prepared.
# [3] = oil or lipid, Approximate Solubility in Excipient: Cottonseed oil, Heating Temp. 60 °C
# [4] = oil or lipid, Approximate Solubility in Excipient: Sesame oil, Heating Temp. 60 °C
# T1 sequence (P41143 whole entry): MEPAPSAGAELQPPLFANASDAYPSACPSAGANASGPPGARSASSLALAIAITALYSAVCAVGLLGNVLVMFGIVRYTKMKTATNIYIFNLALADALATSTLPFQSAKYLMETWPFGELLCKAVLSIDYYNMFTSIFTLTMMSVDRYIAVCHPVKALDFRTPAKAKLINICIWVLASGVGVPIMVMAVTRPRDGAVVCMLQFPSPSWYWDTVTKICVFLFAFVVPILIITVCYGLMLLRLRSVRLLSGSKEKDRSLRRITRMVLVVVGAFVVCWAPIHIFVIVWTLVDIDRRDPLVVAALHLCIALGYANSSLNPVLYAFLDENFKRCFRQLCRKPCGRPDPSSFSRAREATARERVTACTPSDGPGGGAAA
# T2 sequence (P41145 whole entry): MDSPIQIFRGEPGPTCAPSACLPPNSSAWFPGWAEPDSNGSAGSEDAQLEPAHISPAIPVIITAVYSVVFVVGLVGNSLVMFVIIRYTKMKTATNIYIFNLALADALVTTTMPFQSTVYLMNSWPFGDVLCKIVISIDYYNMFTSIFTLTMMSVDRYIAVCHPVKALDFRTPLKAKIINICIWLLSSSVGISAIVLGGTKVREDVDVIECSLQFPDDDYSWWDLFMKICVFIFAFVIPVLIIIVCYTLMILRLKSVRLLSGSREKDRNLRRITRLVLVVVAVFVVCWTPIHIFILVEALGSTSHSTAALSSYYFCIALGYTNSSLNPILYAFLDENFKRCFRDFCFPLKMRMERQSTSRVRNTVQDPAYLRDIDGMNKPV
# T3 sequence (P35372 whole entry): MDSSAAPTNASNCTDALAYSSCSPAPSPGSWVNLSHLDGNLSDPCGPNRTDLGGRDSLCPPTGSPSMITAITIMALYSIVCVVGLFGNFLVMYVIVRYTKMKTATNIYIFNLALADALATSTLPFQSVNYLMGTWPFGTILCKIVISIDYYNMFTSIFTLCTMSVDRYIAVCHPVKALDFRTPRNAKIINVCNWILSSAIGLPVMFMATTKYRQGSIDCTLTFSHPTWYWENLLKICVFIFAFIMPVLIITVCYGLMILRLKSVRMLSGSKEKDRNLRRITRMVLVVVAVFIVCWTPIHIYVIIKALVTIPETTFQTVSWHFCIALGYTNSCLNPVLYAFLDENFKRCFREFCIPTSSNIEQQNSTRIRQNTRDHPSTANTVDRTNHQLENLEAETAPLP
Compound,IC50 (DOR) [nM],IC50 (KOR) [nM],IC50 (MOR) [nM],"solubility at 24 h [1, 3] [mg/mL]","solubility at 24 h [1, 4] [mg/mL]",solubility thermodynamic ([1]; Heating Temp. 40 °C) [µg/mL],"solubility [1, 3] [mg/mL]","solubility ([1]; organic solvent or mixture, Approximate Solubility in Excipient: Ethanol, Heating Temp. 60 °C) [mg/mL]",solubility thermodynamic ([1]; Heating Temp. 60 °C) [µg/mL],AUC(0-inf) [2] [ng·h/mL]
"C=C1CC[C@@]2(O)C3Cc4ccc(OC(=O)OCCCCCCCCCCCCCCC)c5c4[C@@]2(CCN3CC2CC2)[C@H]1O5 [Compound 32, (4aS,7aS,12bS)-3-(cyclopropylmethyl)-4a-hydroxy-7-methylene-2,3,4,4a,5,6,7,7a-octahydro-1H-4,12-methanobenzofuro[3,2-e]isoquinolin-9-yl pentadecyl carbonate]",> 10000,2120,17.4,> 396,> 410,32.8,,,,
"C=C1CC[C@@]2(O)C3Cc4ccc(OC(=O)OCCCCCCCCCCCCC)c5c4[C@@]2(CCN3CC2CC2)[C@H]1O5 [Compound 30, (4aS,7aS,12bS)-3-(cyclopropylmethyl)-4a-hydroxy-7-methylene-2,3,4,4a,5,6,7,7a-octahydro-1H-4,12-methanobenzofuro[3,2-e]isoquinolin-9-yl tridecyl carbonate]",1850,88.7,9,252 to 404,253 to 399,< 1,,,,
"C=C1CC[C@@]2(O)C3Cc4ccc(OCOC(=O)CCCCCCCCCCC)c5c4[C@@]2(CCN3CC2CC2)[C@H]1O5 [Compound 44, (((4aS,7aS,12bS)-3-(cyclopropylmethyl)-4a-hydroxy-7-methylene-2,3,4,4a,5,6,7,7a-octahydro-1H-4,12-methanobenzofuro[3,2-e]isoquinolin-9-yl)oxy)methyl dodecanoate]",190,18.4,3.03,> 407,208 to 231,< 1,,,,
"CCCCCCCCOC(=O)Oc1ccc2c3c1O[C@H]1C(=O)CC[C@@]4(O)C(C2)N(CC2CC2)CC[C@]314 [Compound 23, (4aS,7aR,12bS)-3-(cyclopropylmethyl)-4a-hydroxy-7-oxo-2,3,4,4a,5,6,7,7a-octahydro-1H-4,12-methanobenzofuro[3,2-e]isoquinolin-9-yl octyl carbonate]",107,11.7,2.8,> 408,> 424,,> 412,> 419,9.4,
"C=C1CC[C@@]2(O)C3Cc4ccc(OCOC(=O)OCCCCCCCCCCCCCCCC)c5c4[C@@]2(CCN3CC2CC2)[C@H]1O5 [Compound 34, (((4aS,7aS,12bS)-3-(cyclopropylmethyl)-4a-hydroxy-7-methylene-2,3,4,4a,5,6,7,7a-octahydro-1H-4,12-methanobenzofuro[3,2-e]isoquinolin-9-yl)oxy)methyl hexadecyl carbonate]",> 10000,1770,12.5,> 404,> 405,< 1,,,,
"CCCCCCCCCCCCOC(=O)OCOc1ccc2c3c1O[C@H]1C(=O)CC[C@@]4(O)C(C2)N(CC2CC2)CC[C@]314 [Compound 29, (((4aS,7aR,12bS)-3-(cyclopropylmethyl)-4a-hydroxy-7-oxo-2,3,4,4a,5,6,7,7a-octahydro-1H-4,12-methanobenzofuro[3,2-e]isoquinolin-9-yl)oxy)methyl dodecyl carbonate]",,,,> 410,> 416,< 1,,,,74.8
"C=C1CC[C@@]2(O)C3Cc4ccc(OCOC(=O)OCCCCCCCCCCCCCC)c5c4[C@@]2(CCN3CC2CC2)[C@H]1O5 [Compound 25, (((4aS,7aS,12bS)-3-(cyclopropylmethyl)-4a-hydroxy-7-methylene-2,3,4,4a,5,6,7,7a-octahydro-1H-4,12-methanobenzofuro[3,2-e]isoquinolin-9-yl)oxy)methyl tetradecyl carbonate]",9540,889,5,> 414,> 404,< 1,,,,
